# Reference: PubChem BioAssay AID1996
# Conditions: buffer; pH 7.4; 200.0 µM
row,Compound,solubility kinetic
1,COc1ccc2[nH]c(C(=O)N(C)Cc3ccccc3)c(C)c2c1,9.1 µg/mL
2,CCOc1ccc(S(=O)(=O)/N=C(/Nc2ccc(C(C)=O)cc2)c2ccccc2)cc1,18.1 µg/mL
3,Cc1ccc(S(=O)(=O)NCc2cccnc2)cc1,> 39.3 µg/mL
4,CC(C)C(O)(C(=O)NNc1ccccc1)C(C)C,> 37.6 µg/mL
5,O=C(NC1CCCCC1)c1ccc(-c2ccccc2[N+](=O)[O-])o1,2.9 µg/mL
6,O=S1(=O)CCC(=Nc2ccc(Cl)cc2)c2ccsc21,20.3 µg/mL
7,O=C(/C=C/c1ccco1)Nc1cccnc1Cl,33 µg/mL
8,CN(C)CCCN(C(=O)c1ccco1)c1nc2ccc(F)cc2s1.Cl,55 µg/mL
9,O=C(Cc1cccs1)NCc1cccc(Br)c1,> 46.5 µg/mL
10,NS(=O)(=O)c1cccc(NC(=O)COC(=O)CC2Sc3ccccc3NC2=O)c1 (stereo not given),32.5 µg/mL
11,COc1ccccc1-n1cnc2sc(C)c(C)c2c1=O,15.1 µg/mL
12,O=C(OCC(=O)N1CCCCC1)c1cc(=O)[nH]c2ccccc12,> 47.2 µg/mL
13,COc1nc(N(C)C)nc(N(C#N)S(=O)(=O)c2ccc(C)cc2)n1,51.7 µg/mL
14,Cc1ccc2c(CN(C)Cc3cccc(Cl)c3)cc(=O)oc2c1C,< 0.7 µg/mL
15,CCOc1ccc(NC(=S)NC(=O)C2CCCC2)cc1,1 µg/mL
16,Cc1cccc(N(C)S(=O)(=O)c2ccc3c(c2)NC(=O)CC(=O)N3)c1,> 53.9 µg/mL
17,CCOC(=O)C1=C(C)NC(C)=C(C(=O)OCC)C1C(=O)OCC(=O)NCCc1ccccc1,> 68.8 µg/mL
18,O=C(CCSCc1ccccc1Cl)NCc1cccs1,32.4 µg/mL
19,CCOc1ccc(N2CC(C(=O)Nc3cc(S(=O)(=O)N4CCCCC4)ccc3C)CC2=O)cc1 (stereo not given),1.3 µg/mL
20,O=C(CC(c1ccccc1)c1ccco1)N1CCCCC1 (stereo not given),> 42.5 µg/mL
21,Cc1ccc(OCCc2csc(N)n2)cc1,34.8 µg/mL
22,COc1cccc(OC)c1CNC(=O)CCSCc1ccccc1F,37.3 µg/mL
23,O=C(c1cc2ccccc2cc1O)N1CCCC(C(F)(F)F)C1 (stereo not given),> 48.5 µg/mL
24,Nc1nc2ccc(C(=O)NCCOC(=O)C3CCCCC3)cc2s1,12.8 µg/mL

row,Compound,solubility kinetic
1,O=C(CN1C(=O)NC2NC(=O)NC21)N/N=C/c1ccc(F)cc1 (stereo not given),> 48 µg/mL
2,CC(C)c1ccc(C(O)P(=O)(OCc2ccccc2)c2ccc(N(C)C)cc2)cc1 (stereo not given),6.2 µg/mL
3,CC(=O)c1cccc(NC(=O)c2ccccc2-c2ccccc2C(=O)O)c1,> 53.9 µg/mL
4,Cc1cccc(-c2noc(CN(C)C(=O)COc3ccccc3)n2)c1,36.9 µg/mL
5,CC1(C)CC(=O)C=C(Nc2ccc([N+](=O)[O-])cc2)C1,22.8 µg/mL
6,CCc1ccc(C(=O)NNC(=O)[C@H](C)NC(=O)c2ccco2)cc1,> 49.4 µg/mL
7,Clc1ccc(-c2noc(/C=C/c3ccccc3)n2)cc1,< 0.3 µg/mL
8,CC(C)(C)NC(=O)NC(=O)CSc1ncccn1,> 40.2 µg/mL
9,CCCNc1c(N)c(=O)c1=O,> 23.1 µg/mL
10,O=C(O)CCCn1c(=O)c2cccn2c2ccc(F)cc21,> 43.2 µg/mL
11,Cc1nn(C(=O)N(C)C)c(C)c1CN1C(=O)c2ccccc2C1=O,> 49 µg/mL
12,NC(=O)C1CCN(C(=O)CNC(=O)c2ccc(F)cc2)CC1,> 46.1 µg/mL
13,Cc1ccnc(Cc2ccccc2)n1,18.5 µg/mL
14,Cc1cc(C(=O)N2CCN(c3ncccn3)CC2)nn1C,> 43 µg/mL
15,CCn1c(SCC#N)nc2ccccc2c1=O,> 36.8 µg/mL
16,O=C(CN1CCOCC1)NNC(=O)c1ccc(Cl)cc1,> 44.7 µg/mL
17,NC(=O)Nc1ccc(C(=O)OCC(=O)NC2CCCc3ccccc32)cc1 (stereo not given),11 µg/mL
18,O=C(c1cccc(S(=O)(=O)N2CCc3ccccc32)c1)N1CCOCC1,54.8 µg/mL
19,O=C(COC(=O)CC1CCS(=O)(=O)C1)Nc1ccc(F)cc1 (stereo not given),> 49.4 µg/mL
20,CN1CCN(Cc2ccc3ccccc3c2)CC1,20.6 µg/mL
21,O=C(NCCCn1ccnc1)C(=O)Nc1ccccc1,39.5 µg/mL
22,Cc1c(N=Cc2cc3c(cc2[N+](=O)[O-])OCO3)cccc1[N+](=O)[O-],6.5 µg/mL
23,Cc1ccc(C)c(CN2CCN(c3ncccn3)CC2)c1,17.4 µg/mL
24,Cc1ccc(-c2cnco2)cc1,< 0.3 µg/mL

row,Compound,solubility kinetic
1,CCOc1ccccc1N1C(=O)CC(=O)NC1=O,> 37.2 µg/mL
2,O=[N+]([O-])c1ccc(NCCCO)c(S(=O)(=O)N2CCOCC2)c1,48.8 µg/mL
3,COc1ccc(NC(=S)NC(=O)c2ccc3c(c2)OCCO3)cc1,2.1 µg/mL
4,O=C(CC1CCC1)Nc1cccc2c([N+](=O)[O-])cccc12,5.8 µg/mL
5,CC1CCN(CC(=O)Nc2nc(-c3ccccc3)cs2)CC1,12.9 µg/mL
6,Cc1ccc(C(=O)OCC(=O)N2CCCC2)cc1,32.7 µg/mL
7,Cc1ccc(CSCC(=O)NCc2ccco2)cc1,36.8 µg/mL
8,Cc1ccc(C(=O)Nc2ccc(N3CCN(C)CC3)nc2)cc1,> 46.6 µg/mL
9,Cn1c(-c2ccc(F)cc2)cnc1NCc1ccc(F)cc1F,34.9 µg/mL
10,Cc1c(Cl)cccc1NC(=O)CSC(N)=O,15.6 µg/mL
11,CCOC(=O)C1=C(C)NC(C)=C(C(=O)OCC)C1C(=O)OCC(=O)NCc1ccccc1OC,> 71.2 µg/mL
12,O=C(O)/C=C/c1cn(-c2ccccc2)nc1-c1ccccc1,> 43.5 µg/mL
13,O=C(NC1=NCCS1)c1ccc(F)c(S(=O)(=O)N2CCOCC2)c1,> 56 µg/mL
14,CC1=CC(C)(C)[N+](C)(C)c2ccccc21.[I-],41 µg/mL
15,O=C1NCC(NC(=O)C(F)(F)F)c2cc3c(cc21)OCO3 (stereo not given),> 45.3 µg/mL
16,Cc1cnc(C(=O)OCC(=O)NCc2cccc(Cl)c2)cn1,> 48 µg/mL
17,COc1cccc(/C=C2\SC(=S)N(c3cccnc3)C2=O)c1OC,< 0.4 µg/mL
18,COc1cccc(Oc2ncnc(N)c2[N+](=O)[O-])c1,31 µg/mL
19,Nc1nc(Nc2ccccc2)sc1C(=O)c1ccccc1,4.3 µg/mL
20,S=C(NCc1ccccc1)NCc1ccccn1,> 38.6 µg/mL
21,COc1cc([N+](=O)[O-])ccc1NC(=S)NC(=O)CC(C)(C)C,0.3 µg/mL
22,Cc1cc(OCCCN2CCCC2)ccc1Cl,26.8 µg/mL
23,O=C(Cc1c(F)cccc1Cl)NCc1cccnc1,> 41.8 µg/mL
24,COCCCNC(=O)c1ccc(CSCc2ccc(C)cc2)o1,49.8 µg/mL

row,Compound,solubility kinetic
1,COc1ccc(S(=O)(=O)N2CCCCCC2)cc1NC(=O)CN1C(=O)CNC1=O,> 63.7 µg/mL
2,Cc1noc(C)c1CN1C(=O)c2ccccc2C1=O,30.1 µg/mL
3,O=C(C1CCCC1)N1CCCC(Nc2ccccc2)C1 (stereo not given),35.9 µg/mL
4,COc1ccc(S(=O)(=O)N2CCCCCC2)cc1N,> 42.7 µg/mL
5,Nc1nc(Oc2ccc(F)cc2)c(Br)c(=O)[nH]1,> 45 µg/mL
6,Cc1ccc(C(=O)NCCNC(=O)c2ccco2)cc1C,38.8 µg/mL
7,CN(C)c1cc(-c2ccc(Cl)cc2Cl)oc(=O)c1Cl,3.3 µg/mL
8,CNS(=O)(=O)c1cccc(C(=O)OCC(=O)N2CCN(C(=O)c3ccco3)CC2)c1,> 65.3 µg/mL
9,CN(C1CCS(=O)(=O)C1)S(=O)(=O)c1ccc2ccccc2c1 (stereo not given),9.2 µg/mL
10,COc1ccc(CC(=O)NCCC2=CCCCC2)cc1,> 41 µg/mL
11,Cc1csc(C)[n+]1CC(=O)c1ccccc1.[Br-],> 46.8 µg/mL
12,O=S(=O)(NCc1csc(-c2cccs2)n1)c1ccccc1,40.6 µg/mL
13,O=C(NC1CC2CCCC(C1)N2Cc1ccccc1)C1CCCCC1 (stereo not given),> 51.1 µg/mL
14,O=C(CCC(=O)N1CCCC1)Nc1ccc(Cl)c(Cl)c1,5.6 µg/mL
15,CC1CN(C(=O)COC(=O)c2cc(Cl)ccc2Cl)CC(C)O1 (stereo not given),> 51.9 µg/mL
16,CCOc1ccccc1C(=O)NCC(=O)N1CCC(C)CC1,> 45.7 µg/mL
17,CN(CCC#N)C(=O)COC(=O)c1ccc2c(c1)C(=O)N(C1CCCCC1)C2=O,16.1 µg/mL
18,N#Cc1ccc(NC(=S)NCCN2CCOCC2)cc1,> 43.6 µg/mL
19,O=c1[nH]c2ccccc2nc1Cc1ccc(Cl)cc1,0.9 µg/mL
20,CCc1ccc(NC(=S)NCc2cccnc2)cc1,36.9 µg/mL
21,COc1ccc(N2CC(NC(=O)Nc3ccccc3)CC2=O)cc1 (stereo not given),19.7 µg/mL
22,Fc1ccccc1OCCCCN1CCCCC1,27.7 µg/mL
23,COC(=O)c1ccc(OCC(O)CN2CCOCC2)cc1 (stereo not given),> 44.3 µg/mL
24,Cc1nc(Nc2ccccc2)c2oc3ccc(Cl)cc3c2n1,< 0.2 µg/mL

row,Compound,solubility kinetic
1,CC1CC(C)CN(C(=O)c2ccc3c(c2)OCCO3)C1 (stereo not given),> 41.3 µg/mL
2,CCOC(=O)C(=O)Nc1ccccc1C(=O)OCC,> 39.8 µg/mL
3,Cc1ccc(S(=O)(=O)N(C)c2ccc(OC(=O)c3cc(=O)[nH]c4ccccc34)cc2)cc1,2.7 µg/mL
4,NS(=O)(=O)c1ccc(NC(=O)c2ccc(OCC3CCCO3)cc2)cc1 (stereo not given),13 µg/mL
5,O=C(Cc1ccc(Cl)cc1)N1CCOCC1,> 36 µg/mL
6,Cc1ccc(C(=O)Nn2cnc3ccccc3c2=O)cc1C,> 44 µg/mL
7,CCOc1cc(N2CCOCC2)c(OCC)cc1NC(=O)Cn1cnnn1,> 56.5 µg/mL
8,CC1Cc2ccccc2N1Cc1cccc(S(=O)(=O)N(C)C)c1 (stereo not given),9.4 µg/mL
9,S=C(NC1CC1)N1CCc2ccccc2C1,> 34.9 µg/mL
10,CCOC(=O)Cn1c(=O)c(C#N)cn(C(C)C)c1=O,> 39.8 µg/mL
11,O=C(NCc1ccccc1)C1CCCN(c2cnccn2)C1 (stereo not given),> 44.5 µg/mL
12,Cc1cccc(N2C(=O)/C(=C/N3CCN(C(=O)c4ccco4)CC3)C(=O)NC2=S)c1,2.6 µg/mL
13,Cc1cc(C)cc(NC(=O)N2CCC(NC(=O)c3ccco3)CC2)c1,44.4 µg/mL
14,CCOc1ccc(/C=C2\SC(N3CCCCC3)=NC2=O)cc1,1.6 µg/mL
15,Cl.Nc1ccc2nc(CCCO)[nH]c2c1,> 39.6 µg/mL
16,NC(=O)/C=C/C(=O)Nc1ccc(Cl)cc1,> 33.7 µg/mL
17,C=CCNC(=O)N1CCC(c2nc3ccccc3s2)CC1,> 45.2 µg/mL
18,CCCCN(C(=O)c1ccco1)C1CCS(=O)(=O)C1 (stereo not given),> 42.8 µg/mL
19,CCc1ccccc1NC(=O)CCS(=O)(=O)c1ccc(C)cc1,> 49.7 µg/mL
20,CCc1ccc(C(=O)Nc2cccnc2Oc2ccc(Cl)cc2)cc1,1.5 µg/mL
21,CN1CCCN(C(=O)c2ccc(Br)s2)CC1,> 45.5 µg/mL
22,CCOC(=O)c1ccc(NC(=S)NCc2ccc(F)cc2)cc1,2.2 µg/mL
23,Cc1ncc(CN2CCCC(C(=O)c3sccc3C)C2)s1 (stereo not given),37.4 µg/mL
24,CCCCN(C(=O)c1cccc(-c2ccc(OC(C)=O)cc2)c1)c1c(N)n(CCC)c(=O)[nH]c1=O,8.5 µg/mL
